From patent US11040937B2, “Amide derivative” (TOHOKU UNIVERSITY, priority 2014, dated 2021)

System: OPN production in A549 cells
Experiment: OPN production in culture supernatant by ELISA, per mg cell protein
Format: cell-based, human
Conditions: for amount of the OPN production vs control group: 2 days, significance level less than 1%
Experimental: Brefelamide (Compound 1) was added to a culture liquid containing cells of human liver cancer-derived cell line HepG2, human non-small cell lung cancer-derived cell line A549, human renal cell carcinoma-derived cell line OUR-10, or human pancreatic cancer-derived cell line QGP-1, and the amount of OPN in the culture supernatant after 2 days was measured using Human Osteopontin Immunoassay kit (R&D systems). The confirmation test was performed by comparison of the OPN amount of Compound 1-treated group with that of DMSO-treated group (control group). In addition, Compounds 6, 19, 26, and 38 which are brefelamide derivatives were added to a culture liquid containing cells of human non-small cell lung cancer-derived cell line A549, and a similar confirmation test to the above-mentioned test was performed.
Compounds 1, 6, 19, 26, and 38 have also a cell growth inhibitory effect. Thus, in order to properly evaluate the inhibitory effect of the compounds on the OPN production, the 1×CCLR solution used in luciferase assay was added to cells remaining in each well after removal of culture supernatant to prepare a cell lysate, and the amount of protein in the cell lysate was measured using BCA Protein Assay Kit (Thermo Scientific). The influence of Compound 1 on the amount of the OPN production was evaluated by comparison of the amount of OPN per milligram of protein.
HepG2 cells or A549 cells were suspended in DMEM medium containing 10% FCS and 1% P/S at 4×10^4 cells/mL to obtain a cell suspension, and the cell suspension was dispensed into each well of a 24-well plate in an amount of 500 μL. In order to perform the test in triplicate, 3 wells were prepared for each control group, and 3 wells were prepared for each test compound-treated group at each concentration. The 24-well Plate was incubated in a CO2 incubator (at 37° C., and 3% CO2) for 24±4 hours.
Compound 1, 6, 19, 26, and 38 which are test compounds were dissolved in DMSO to prepare a 50 mmol/L solution of each compound, and the solutions were stored at −80° C. The solution of Compound 1 was diluted with DMSO to prepare 2.5 mmol/L and 5 mmol/L solutions (FIG. 1), 3.125 mmol/L and 6.25 mmol/L solutions (FIG. 2), 6.25 mmol/L and 12.5 mmol/L solutions (FIG. 3), or 5 mmol/L and 10 mmol/L solutions (FIG. 4). The two solutions of Compound 1 at different concentrations were added in an amount of 2 μL per well to wells in which HepG2, A549, OUR-10, or QGP-1 cells were culture, respectively. Only DMSO was added in an amount of 2 μL to each control well.
Similarly, the 50 mmol/L solution of Compound 6 was stared at −80° C., and the solution was diluted with DMSO to prepare 2.5 mmol/L and 5 mmol/L solutions (FIG. 5). The two solutions of Compound 6 at different concentrations were added in an amount of 2 μL per well to wells in which A549 cells were cultured. Only DMSO was added in an amount of 2 μL to the control well.
Also, the 50 mmol/L solutions of Compounds 19, 26, and 38 were stored at −80° C., and each solution was diluted with DMSO to prepare 3.125 mmol/L and 6.25 mmol/L solutions (FIGS. 8 to 10). The two solutions of Compound 19, 26, or 38 at different concentrations were added in an amount of 2 μL per well to wells in which A549 cells were cultured, respectively. Only DMSO was added in an amount of 2 μL to each control well.
The 24-well plate was shaken to mix the solution in each well, and was then incubated in a CO2 incubator (at 37° C. and 5% CO2) for 48±4 hours. Then, the total amount of the resulting culture supernatant was transferred into a 1.5 mL tube, and D-PBS(−) (500 μL) was added to each well containing cells.
The 24-well plate was gently shaken to remove D-PBS(−), and then 5×CCLR used in luciferase assay was diluted to 5 times with water to prepare 1×CCLR. The prepared 1×CCLR was dispensed into each well in an amount of […]. The 24-well plate was then rocked on a rocking shaker for 15 minutes. […]

[1] = concentration increased from 12.5 μmol/L to 25 μmol/L

| Structure (SMILES) | amount of the OPN production vs control group (10 μmol/L) | amount of the OPN production vs control group (20 μmol/L) | OPN production, dependence on concentration (concentration increased from 10 μmol/L to 20 μmol/L) | amount of the OPN production vs control group (12.5 μmol/L) | amount of the OPN production vs control group (25 μmol/L) | OPN production, dependence on concentration [1] |
| --- | --- | --- | --- | --- | --- | --- |
| COc1ccc(Oc2cccc(C(=O)CCNC(=O)c3ccc(O)cc3)c2N)cc1 [Compound 6, N-(3-(2-Amino-3-(4-methoxyphenoxy)phenyl)-3-oxopropyl)-4-hydroxybenzamide] | significantly inhibited | significantly inhibited | inhibited depending on the concentration | – | – | – |
| Nc1ccc(C(=O)NCCC(=O)c2cccc(Oc3ccc(Cl)cc3)c2N)cc1 [Compound 19, N-(3-(2-Amino-3-(4-chlorophenoxy)phenyl)-3-oxopropyl)-4-aminobenzamide] | – | – | – | significantly inhibited | significantly inhibited | inhibited depending on the concentration |
| COc1ccc(Oc2cccc(NC(=O)CCNC(=O)c3ccc(O)cc3)c2)cc1 [Compound 26, N-(3-(3-(4-Methoxyphenoxy)phenylamino)-3-oxopropyl)-4-hydroxybenzamide] | – | – | – | – | – | inhibited depending on the concentration |
| O=C(CCNC(=O)c1ccc(O)cc1)Nc1cccc(Oc2ccc(Cl)c(Cl)c2)c1 [Compound 38, N-(3-(3-(3,4-dichlorophenoxy)phenylamino)-3-oxopropyl)-4-hydroxybenzamide] | – | – | – | significantly inhibited | significantly inhibited | inhibited depending on the concentration |
